Measurements taken from ChEMBL document CHEMBL1127921, “Synthesis and study of a non macrocyclic FK506 derivative” (Bioorg Med Chem Lett, 1994).

Molecular target: Peptidyl-prolyl cis-trans isomerase FKBP1A (Homo sapiens, UniProt P62942)
Assay: Binding affinity towards immunophilin cytosolic protein FK506 binding protein 12 was determined

Chain of Peptidyl-prolyl cis-trans isomerase FKBP1A (P62942 whole entry): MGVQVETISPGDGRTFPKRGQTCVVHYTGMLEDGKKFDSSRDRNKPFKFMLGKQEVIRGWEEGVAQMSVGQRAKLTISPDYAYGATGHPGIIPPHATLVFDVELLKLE

| Ki | SMILES |
| --- | --- |
| 207 nM | C=CCC(CC=C)C(=O)C[C@H](O)[C@@H](C)[C@H](OC(=O)[C@@H]1CCCCN1C(=O)C(=O)[C@]1(O)O[C@H]([C@H](/C=C\C)OC)CC[C@H]1C)[C@H](C)C[C@@H]1CC[C@@H](O)[C@H](OC)C1 |
| 400 nM | CCC[C@H](/C=C(\C)C[C@H](C)C[C@H](OC)[C@H]1O[C@@](O)(C(=O)C(=O)N2CCCC[C@H]2C(=O)O[C@H](/C(C)=C/[C@@H]2CC[C@@H](O)[C@H](OC)C2)C(C)C)[C@H](C)C[C@@H]1OC)C(C)=O |
